{"source": "patent US20020173523A1", "about": "“IMMUNOSUPPRESSION BY PHOTOCHEMOTHERAPY” (priority 1997, published 2002)", "key": {"CD-1 mice (male)": {"test_system": "CD-1 mice (male)", "experiment": "Acute toxicity", "type": "in vivo"}, "BALB/c mice": {"test_system": "BALB/c mice", "experiment": "Contact hypersensitivity test: ear swelling after primary and secondary sensitization with picryl chloride, photochemotherapy with 664 nm laser light", "type": "in vivo", "details": "for Rate of Ear swelling, (%) (Average value ± Standard deviation): laser 664 nm, 10 J/cm^2, 30 min after dosing, untreated group = 100%, 24 h after secondary sensitization", "text": "After the intravenous injection, hair of the abdominal side of the mice was shaved off. Thirty minutes after the administration of the test compound, a laser light at a wave length of 664 nm was irradiated onto the exposed skin of the abdominal side of the mice to give a total fluence of 10 J/cm^2 under the conditions of the laser output of 20 mW/cm^2 and the radiated spots of a diameter of 18 mm.\nFive days after the primary sensitization, an aqueous solution containing 1% picryl chloride was applied to one ear of each mouse under test, to effect the secondary sensitization. Thus, there were prepared the treated groups of the test mice having a contact hypersensitibity.\n(iii) Twenty-four hours after the secondary sensitization, namely six days after the primary sensitization, measurements were made of the thickness of both the ears of each mouse under test by a thickness gauge, and the increases in the thickness of ears were calculated from the difference which was found between the thickness of the one ear having not received the application of picryl chloride and the thickness of the another ear having received the application of picryl chloride for the secondary sensitization. Then, the rates (%) of ear swelling of each mouse of the treated group of mice were evaluated, on such assumption that the average value of the increase in the thickness of the secondarily sensitized ears of the mice of the untreated group was regarded as amounting to 100%, in respect of the mice of the untreated group of mice where the mice were neither administered with the test compound, nor were irradiated with the laser light, but where the mice received only the primary and secondary sensitizations with picryl chloride."}, "[1]": {"test_system": "mice of BALB/c (H-2K^d) strain", "experiment": "Rejection reactions upon transplantation of skin in mice, photochemotherapy with 664 nm laser light", "type": "in vivo", "details": "for Percentage (%) of number of the mice with the surviving and remaining skin graft transplanted: 1 mg/kg i.v., laser 664 nm 10 J/cm^2", "experimental": "The following experiment was conducted in order to evaluate the therapeutic effect of the photochemotherapeutical method of this invention for treating the rejection reactions raised upon the transplantation of skin in mice.\nThus, as the mice (the recipient) which were to recieve a transplantation of skin, were used mice of BALB/c (H-2K^d) strain (ten mice per group). […] Thirty minutes after the intravenous injection of the test compound, a laser light at the wave length of 664 nm was irradiated onto the abdominal side of each recipient mouse at the laser output of 20 mW/cm^2, at the irradiated spots of a diameter of 18 mm and at a total laser fluence of 10 J/cm^2.\nOn the other hand, mice of CH/HeN(H-2K^b) strain were used as the mice (the donor) which were to afford the graft of skin for the transplantation to the recipient. The graft of skin to be used for the skin transplantation was one piece of the tail skin of the donor mice which was cut into a piece of about 5 mm×5 mm. This graft of skin was transplanted on the back side of the recipient mouse in such a manner that hair of the back side of the mouse was firstly shaved off, then one region of the skin of the hair-shaved back side of mouse was stripped off and the skin graft was transplanted onto the skin-stripped region of the back side of the recipient mouse. This skin transplantation was performed twenty-four hours after the irradiation of laser light on the recipient mouse.\nThen, observation was made as to whether the skin graft so transplanted would fall off or not fall from the recipient mouse within the period of from the time of the skin transplantation to the 15 the days after the intravenous injection of the test compound.\nThe number of the recipient mice which normally have the transplanted and surviving skin graft remaining on the back side of mouse was counted at each of the given days of observation. The ratio of the number of the graft-remaining mouse at the each day to the number of the mouse at 0 day was expressed as percentage (%), with that the number of the recipient mice at the 0 day being assumed as 100.\nMice of the untreated group were those mice which received the skin transplantation only but neither received the administration of the test compound nor received the irradiation of laser light."}}, "data": [{"smiles": "C=Cc1c(C)c2cc3nc(c(CC(=O)N[C@@H](CC(=O)[O-])C(=O)[O-])c4[nH]c(cc5nc(cc1[nH]2)C(C)=C5CC)c(C)c4C(=O)[O-])[C@@H](CCC(=O)[O-])[C@@H]3C.[Na+].[Na+].[Na+].[Na+]", "values": [{"measurement": "Photo-toxicity reactions (result in words)", "setting": "Photo-toxicity test", "result": "no reactions such as erythema, edema"}, {"measurement": "LD50", "setting": "CD-1 mice (male)", "result": 164, "unit": "mg/kg"}, {"measurement": "Rate of Ear swelling, (%) (Average value ± Standard deviation)", "setting": "BALB/c mice; 0.001 mg/kg i.v.", "result": "54.4 ± 7.2", "unit": "%"}, {"measurement": "Rate of Ear swelling, (%) (Average value ± Standard deviation)", "setting": "BALB/c mice; 0.01 mg/kg i.v.", "result": "53.2 ± 20.6", "unit": "%"}, {"measurement": "Rate of Ear swelling, (%) (Average value ± Standard deviation)", "setting": "BALB/c mice; 0.05 mg/kg i.v.", "result": "33.3 ± 4.4", "unit": "%"}, {"measurement": "Rate of Ear swelling, (%) (Average value ± Standard deviation)", "setting": "BALB/c mice; 0.1 mg/kg i.v.", "result": "27.8 ± 8.5", "unit": "%"}, {"measurement": "Suppression of the ear swelling", "setting": "BALB/c mice; i.v. dosages of 0.001 mg/kg or more, then laser light", "result": "≥ 45", "unit": "%"}, {"measurement": "Ear swelling in contact hypersensitivity testing (result in words)", "setting": "BALB/c mice; i.v., laser light at 664 nm", "result": "remarkably be suppressed"}, {"measurement": "Percentage (%) of number of the mice with the surviving and remaining skin graft transplanted", "setting": "[1]; 0th day (day of skin transplantation)", "result": 100, "unit": "%"}, {"measurement": "Percentage (%) of number of the mice with the surviving and remaining skin graft transplanted", "setting": "[1]; 6th day", "result": 100, "unit": "%"}, {"measurement": "Percentage (%) of number of the mice with the surviving and remaining skin graft transplanted", "setting": "[1]; 7th day", "result": 80, "unit": "%"}, {"measurement": "Percentage (%) of number of the mice with the surviving and remaining skin graft transplanted", "setting": "[1]; 10th day", "result": 80, "unit": "%"}, {"measurement": "Percentage (%) of number of the mice with the surviving and remaining skin graft transplanted", "setting": "[1]; 11th day", "result": 80, "unit": "%"}, {"measurement": "Percentage (%) of number of the mice with the surviving and remaining skin graft transplanted", "setting": "[1]; 15th day", "result": 0, "unit": "%"}, {"measurement": "Rejection reactions in transplantation of skin (result in words)", "setting": "[1]; i.v., laser light at 664 nm", "result": "preventively suppressed"}, {"measurement": "Percentage of the total mice tested with falling off of the skin graft", "setting": "[1]; within the period of 6th to 11th days, treated group", "result": 20, "unit": "%"}]}]}
